In ChEMBL document CHEMBL1201862, “PubChem BioAssay data set” (2004):
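96-well plates; 48 h exposure; 5 concentrations. Endpoints by linear interpolation between flanking doses. Not reached: highest tested concentration assigned. Here, GI50 denotes the concentration required for 50% inhibition of growth.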 Calls of active or inactive are those of the source. No stated cut-off is given here; in the data, active = GI50 up to about 1.1 µM and inactive = higher.

Legend:
Test in all cases: NCI-60 cell line screen, 48 h
786-0 = test system: 786-0
A498 = test system: A498
A549 = test system: A549
ACHN = test system: ACHN
CAKI-1 = test system: CAKI-1
CCRF-CEM = test system: CCRF-CEM
COLO 205 = test system: COLO 205
DLD-1 = test system: DLD-1
DMS-114 = test system: DMS-114
DMS-273 = test system: DMS-273
EKVX = test system: EKVX
HCC 2998 = test system: HCC 2998
HCT-116 = test system: HCT-116
HCT-15 = test system: HCT-15
HL-60 = test system: HL-60
HOP-18 = test system: HOP-18
HOP-62 = test system: HOP-62
HOP-92 = test system: HOP-92
HT-29 = test system: HT-29
IGROV-1 = test system: IGROV-1
K562 = test system: K562
KM-20L2 = test system: KM-20L2
KM12 = test system: KM12
LOX IMVI = test system: LOX IMVI
LXFL 529 = test system: LXFL 529
M14 = test system: M14
M19-MEL = test system: M19-MEL
MOLT-4 = test system: MOLT-4
Malme-3M = test system: Malme-3M
NCI-H226 = test system: NCI-H226
NCI-H23 = test system: NCI-H23
NCI-H460 = test system: NCI-H460
NCI-H522 = test system: NCI-H522
OVCAR-3 = test system: OVCAR-3
OVCAR-4 = test system: OVCAR-4
OVCAR-5 = test system: OVCAR-5
OVCAR-8 = test system: OVCAR-8
RPMI-8226 = test system: RPMI-8226
RXF 393 = test system: RXF 393
SF-268 = test system: SF-268
SF-295 = test system: SF-295
SF-539 = test system: SF-539
SK-MEL-28 = test system: SK-MEL-28
SK-MEL-2 = test system: SK-MEL-2
SK-MEL-5 = test system: SK-MEL-5
SK-OV-3 = test system: SK-OV-3
SN12C = test system: SN12C
SNB-19 = test system: SNB-19
SNB-75 = test system: SNB-75
SNB-78 = test system: SNB-78
SR = test system: SR
SW-620 = test system: SW-620
TK-10 = test system: TK-10
U-251 = test system: U-251
UACC-257 = test system: UACC-257
UACC-62 = test system: UACC-62
UO-31 = test system: UO-31
XF498 = test system: XF498

## COCOCC[C@@H]1CC=CC(NC(=O)OCc2ccccc2)C1/C=C/C(=O)CCC1OCCO1 (stereo not given in full)
786-0
  GI50: 48.4 µM (inactive)
A498
  GI50: 71.1 µM (inactive)
A549
  GI50: 75.5 µM (inactive)
ACHN
  GI50: 36.6 µM (inactive)
CAKI-1
  GI50: 44.2 µM (inactive)
CCRF-CEM
  GI50: 17.3 µM (inactive)
COLO 205
  GI50: 20.7 µM (inactive)
DLD-1
  GI50: 17.1 µM (inactive)
DMS-114
  GI50: 29.9 µM (inactive)
DMS-273
  GI50: 23 µM (inactive)
EKVX
  GI50: 50.1 µM (inactive)
HCC 2998
  GI50: > 63.7 µM (inactive)
HCT-116
  GI50: 17.7 µM (inactive)
HCT-15
  GI50: 16.4 µM
HL-60
  GI50: 18.5 µM (inactive)
HOP-18
  GI50: 34.3 µM (inactive)
HOP-62
  GI50: > 79.8 µM (inactive)
HOP-92
  GI50: > 54.8 µM (inactive)
HT-29
  GI50: 38.9 µM (inactive)
IGROV-1
  GI50: 56.6 µM (inactive)
K562
  GI50: 32.1 µM (inactive)
KM-20L2
  GI50: 34.9 µM (inactive)
KM12
  GI50: 18.8 µM (inactive)
LOX IMVI
  GI50: 18.5 µM (inactive)
LXFL 529
  GI50: 22.4 µM (inactive)
M14
  GI50: 29.5 µM (inactive)
M19-MEL
  GI50: 19.1 µM (inactive)
MOLT-4
  GI50: 10.5 µM (inactive)
Malme-3M
  GI50: 98.2 µM (inactive)
NCI-H226
  GI50: 46.7 µM (inactive)
NCI-H23
  GI50: 37.6 µM (inactive)
NCI-H460
  GI50: 38.6 µM (inactive)
NCI-H522
  GI50: 16.4 µM (inactive)
OVCAR-3
  GI50: 27.2 µM (inactive)
OVCAR-4
  GI50: 29 µM (inactive)
OVCAR-5
  GI50: > 72.8 µM (inactive)
OVCAR-8
  GI50: 19.1 µM (inactive)
RPMI-8226
  GI50: 26.1 µM (inactive)
RXF 393
  GI50: 29.7 µM (inactive)
SF-268
  GI50: 34 µM (inactive)
SF-295
  GI50: 48.1 µM (inactive)
SF-539
  GI50: 25.6 µM (inactive)
SK-MEL-28
  GI50: 42.1 µM (inactive)
SK-MEL-2
  GI50: 25.4 µM (inactive)
SK-MEL-5
  GI50: 55.2 µM (inactive)
SK-OV-3
  GI50: 54.5 µM (inactive)
SN12C
  GI50: 25.2 µM (inactive)
SNB-19
  GI50: > 100 µM (inactive)
SNB-75
  GI50: 28.8 µM (inactive)
SNB-78
  GI50: 48.1 µM (inactive)
SR
  GI50: 3.79 µM (inactive)
SW-620
  GI50: 22.8 µM (inactive)
TK-10
  GI50: 46.8 µM (inactive)
U-251
  GI50: 25.7 µM (inactive)
UACC-257
  GI50: 25.4 µM (inactive)
UACC-62
  GI50: 25.5 µM (inactive)
UO-31
  GI50: 46.6 µM (inactive)
XF498
  GI50: 34.4 µM (inactive)

## NC(=O)OCC1=C(COC(N)=O)C(=O)c2c(O)ccc(O)c2C1=O
A498
  GI50: > 100 µM (inactive)
A549
  GI50: > 100 µM (inactive)
ACHN
  GI50: > 100 µM (inactive)
CAKI-1
  GI50: > 100 µM (inactive)
CCRF-CEM
  GI50: 44.7 µM (inactive)
COLO 205
  GI50: 58.7 µM (inactive)
DLD-1
  GI50: > 100 µM (inactive)
DMS-114
  GI50: > 100 µM (inactive)
DMS-273
  GI50: > 100 µM (inactive)
EKVX
  GI50: > 100 µM (inactive)
HCC 2998
  GI50: > 100 µM (inactive)
HCT-116
  GI50: > 100 µM (inactive)
HCT-15
  GI50: > 100 µM
HL-60
  GI50: 45.2 µM (inactive)
HOP-18
  GI50: > 100 µM (inactive)
HOP-62
  GI50: > 100 µM (inactive)
HOP-92
  GI50: > 100 µM (inactive)
HT-29
  GI50: > 100 µM (inactive)
IGROV-1
  GI50: > 100 µM (inactive)
K562
  GI50: 61.9 µM (inactive)
KM-20L2
  GI50: > 100 µM (inactive)
KM12
  GI50: > 100 µM (inactive)
LXFL 529
  GI50: > 100 µM (inactive)
M14
  GI50: > 100 µM (inactive)
M19-MEL
  GI50: 3.46 µM (inactive)
MOLT-4
  GI50: 55.8 µM (inactive)
Malme-3M
  GI50: > 100 µM (inactive)
NCI-H226
  GI50: > 100 µM (inactive)
NCI-H23
  GI50: > 100 µM (inactive)
NCI-H522
  GI50: > 100 µM (inactive)
OVCAR-3
  GI50: > 100 µM (inactive)
OVCAR-4
  GI50: > 100 µM (inactive)
OVCAR-5
  GI50: > 100 µM (inactive)
OVCAR-8
  GI50: > 100 µM (inactive)
RPMI-8226
  GI50: > 100 µM (inactive)
SF-268
  GI50: > 100 µM (inactive)
SF-295
  GI50: > 100 µM (inactive)
SF-539
  GI50: > 100 µM (inactive)
SK-MEL-28
  GI50: > 100 µM (inactive)
SK-MEL-2
  GI50: 78.7 µM (inactive)
SK-MEL-5
  GI50: 48 µM (inactive)
SK-OV-3
  GI50: > 100 µM (inactive)
SN12C
  GI50: > 100 µM (inactive)
SNB-75
  GI50: > 100 µM (inactive)
SNB-78
  GI50: > 100 µM (inactive)
SR
  GI50: > 100 µM (inactive)
SW-620
  GI50: 61.1 µM (inactive)
TK-10
  GI50: > 100 µM (inactive)
U-251
  GI50: > 100 µM (inactive)
UACC-257
  GI50: > 100 µM (inactive)
UACC-62
  GI50: 27.3 µM (inactive)
UO-31
  GI50: > 100 µM (inactive)
